Tests used:
[1] = target: Muscarinic acetylcholine receptor; assay: Tested in vitro for its ability to displace 3[H] clozapine from Muscarinic acetylcholine receptor in rat brain; format: tissue-based
[2] = Tested in vitro for its ability to displace 3[H] clozapine from non-muscarinic receptor in rat brain; format: tissue-based
[3] = target: Dopamine receptor; assay: Displacement of 3[H]spiroperidol from Dopamine receptor in rat brain

IC50 [1] [nM] | IC50 [2] [nM] | IC50 [3] [nM] | Structure (SMILES)
1970 | 9.4 | 357 | CN1CCN(C2=Cc3cc(Cl)ccc3Oc3ccccc32)CC1
28 | 17 | – | CN1CCN(C2=Nc3ccccc3Nc3ccc(Cl)cc32)CC1 [ISOCLOZAPINE]
– | 13 | – | CN1CCN(C2=Cc3cc(Cl)ccc3Cc3ccccc32)CC1
– | 3.7 | – | CN1CCN(C2=Cc3ccccc3Cc3ccccc32)CC1
2290 | 4 | 1500 | CN1CCN(C2=Cc3ccccc3Oc3ccccc32)CC1
– | 25 | > 10000 | CN1CCN(C2=Nc3ccccc3Nc3ccccc32)CC1
– | 10 | – | CN1CCN(C2=Cc3ccccc3Cc3ccc(Cl)cc32)CC1

Structure (SMILES) | IC50 [1] [nM] | IC50 [2] [nM] | IC50 [3] [nM]
CN1CCN(C2=Cc3ccccc3Oc3ccc(Cl)cc32)CC1 | 2027 | 7.3 | 27
CN1CCN(C2=Nc3cc(Cl)ccc3Nc3ccccc32)CC1 [CLOZAPINE] | – | 13 | –
